Reference: ChEMBL document CHEMBL1152405, “Bis-anthracenyl isoxazolyl amides have enhanced anticancer activity” (Bioorg Med Chem Lett, 2009)

What was measured:
Assay type in all cases: functional
[1] = tested on: OVCAR-8; assay: Growth inhibition of human OVCAR8 cells after 24 hrs by MTT assay; conditions: OVCAR-8, 24 h
[2] = tested on: UO-31; assay: Growth inhibition of human UO31 cells at 10 uM after 24 hrs by MTT assay relative to control; parameters: scale not given: the % may be the effect or the level left
[3] = tested on: U-251; assay: Growth inhibition of human U251 cells after 24 hrs by MTT assay; conditions: U-251, 24 h
[4] = tested on: OVCAR-4; assay: Growth inhibition of human OVCAR4 cells after 24 hrs by MTT assay; conditions: OVCAR-4, 24 h
[5] = tested on: MDA-MB-231; assay: Growth inhibition of human MDA-MB-231 cells at 10 uM after 24 hrs by MTT assay relative to control; parameters: scale not given: the % may be the effect or the level left
[6] = tested on: SK-MEL-28; assay: Growth inhibition of human SK-MEL-28 cells after 24 hrs by MTT assay; conditions: SK-MEL-28, 24 h
[7] = tested on: SF-295; assay: Growth inhibition of human SF295 cells after 24 hrs by MTT assay; conditions: SF-295, 24 h
[8] = tested on: OVCAR-4; assay: Growth inhibition of human OVCAR4 cells at 10 uM after 24 hrs by MTT assay relative to control; parameters: scale not given: the % may be the effect or the level left
[9] = tested on: SW-620; assay: Growth inhibition of human SW620 cells at 10 uM after 24 hrs by MTT assay relative to control; parameters: scale not given: the % may be the effect or the level left
[10] = Growth inhibition of human […] cells after 24 hrs by MTT assay
[11] = tested on: TK-10; assay: Growth inhibition of human TK10 cells at 10 uM after 24 hrs by MTT assay relative to control; parameters: scale not given: the % may be the effect or the level left
[12] = tested on: KM12; assay: Growth inhibition of human KM12 cells after 24 hrs by MTT assay; conditions: KM12, 24 h
[13] = tested on: DU-145; assay: Growth inhibition of human DU145 cells after 24 hrs by MTT assay; conditions: DU-145, 24 h
[14] = tested on: CCRF-CEM; assay: Growth inhibition of human CCRF-CEM cells after 24 hrs by MTT assay
[15] = tested on: SK-MEL-5; assay: Growth inhibition of human SK-MEL-5 cells after 24 hrs by MTT assay; conditions: SK-MEL-5, 24 h
[16] = tested on: SF-268; assay: Growth inhibition of human SF268 cells at 10 uM after 24 hrs by MTT assay relative to control; parameters: scale not given: the % may be the effect or the level left
[17] = tested on: MOLT-4; assay: Growth inhibition of human MOLT4 cells at 10 uM after 24 hrs by MTT assay relative to control; parameters: scale not given: the % may be the effect or the level left
[18] = tested on: UO-31; assay: Growth inhibition of human UO31 cells after 24 hrs by MTT assay; conditions: UO-31, 24 h
[19] = tested on: BT-549; assay: Growth inhibition of human BT549 cells after 24 hrs by MTT assay; conditions: BT-549, 24 h
[20] = tested on: HCT-15; assay: Growth inhibition of human HCT15 cells after 24 hrs by MTT assay; conditions: HCT-15, 24 h
[21] = tested on: HCC 2998; assay: Growth inhibition of human HCC2998 cells after 24 hrs by MTT assay; conditions: HCC 2998, 24 h
[22] = tested on: RXF 393; assay: Growth inhibition of human RXF393 cells at 10 uM after 24 hrs by MTT assay relative to control; parameters: scale not given: the % may be the effect or the level left
[23] = tested on: M14; assay: Growth inhibition of human M14 cells after 24 hrs by MTT assay; conditions: M14, 24 h
[24] = Growth inhibition of human Hs 578T cells after 24 hrs by MTT assay
[25] = tested on: RXF 393; assay: Growth inhibition of human RXF393 cells after 24 hrs by MTT assay; conditions: RXF 393, 24 h
[26] = tested on: HOP-92; assay: Growth inhibition of human HOP92 cells after 24 hrs by MTT assay; conditions: HOP-92, 24 h
[27] = tested on: SNB-19; assay: Growth inhibition of human SNB19 cells after 24 hrs by MTT assay; conditions: SNB-19, 24 h
[28] = tested on: COLO 205; assay: Growth inhibition of human COLO205 cells after 24 hrs by MTT assay; conditions: COLO 205, 24 h
[29] = tested on: HT-29; assay: Growth inhibition of human HT-29 cells after 24 hrs by MTT assay; conditions: HT-29, 24 h
[30] = tested on: MOLT-4; assay: Growth inhibition of human MOLT4 cells after 24 hrs by MTT assay; conditions: MOLT-4, 24 h
[31] = tested on: LOX IMVI; assay: Growth inhibition of human LOXIMVI cells at 10 uM after 24 hrs by MTT assay relative to control; parameters: scale not given: the % may be the effect or the level left
[32] = tested on: SN12C; assay: Growth inhibition of human SN12C cells at 10 uM after 24 hrs by MTT assay relative to control; parameters: scale not given: the % may be the effect or the level left
[33] = read-out: LC50 (the source's name)
[34] = read-out: pLC50 (the source's name) (converted)

In the case of `Cc1onc(-c2c3ccccc3c(Cl)c3ccccc23)c1C(=O)Nc1cc(C(=O)NCCCN(C)CCCNC(=O)c2cc(NC(=O)c3c(-c4c5ccccc5c(Cl)c5ccccc45)noc3C)cn2C)n(C)c1`, the TGI [1] is reported as 4.09 µM, the GI50 ([1]; read-out: GI50) is reported as 1.97 µM and the GI50 ([1]; read-out: pGI50 (converted)) is reported as 2 µM. For the same molecule, the Activity [2] was -80.7%, the GI50 ([3]; read-out: GI50) was 1.5 µM and the GI50 ([3]; read-out: pGI50 (converted)) was 1.51 µM. It also gave a TGI [4] of 2.88 µM, a GI50 ([4]; read-out: GI50) of 1.49 µM and a CC50 [4, 33] of 5.56 µM. It also gave a GI50 ([4]; read-out: pGI50 (converted)) of 1.48 µM, a CC50 [4, 34] of 5.62 µM and an Activity [5] of -100%. The TGI [6] was 2.98 µM, the GI50 ([6]; read-out: GI50) was 1.63 µM and the CC50 [6, 33] was 5.46 µM. The GI50 ([6]; read-out: pGI50 (converted)) was 1.62 µM, the CC50 [6, 34] was 5.5 µM and the TGI [7] was 3.33 µM. For the same molecule, the GI50 ([7]; read-out: GI50) was 1.67 µM, the GI50 ([7]; read-out: pGI50 (converted)) was 1.66 µM and the Activity [8] was -100%. The Activity [9] was -100%, the TGI [10] was 3.38 µM and the GI50 ([10]; read-out: GI50) was 1.39 µM. The CC50 [10, 33] was 8.21 µM, the GI50 ([10]; read-out: pGI50 (converted)) was 1.38 µM and the CC50 [10, 34] was 8.13 µM. It also gave an Activity [11] of -89.17%, a TGI [12] of 2.63 µM and a GI50 ([12]; read-out: GI50) of 1.35 µM. It also gave a GI50 ([12]; read-out: pGI50 (converted)) of 1.35 µM, a TGI [13] of 2.6 µM and a GI50 ([13]; read-out: GI50) of 1.33 µM. The CC50 [13, 33] was 5.1 µM, the GI50 ([13]; read-out: pGI50 (converted)) was 1.32 µM and the CC50 [13, 34] was 5.13 µM. The TGI [14] was 3.55 µM, the GI50 ([14]; read-out: GI50) was 1.6 µM and the CC50 [14, 33] was 7.9 µM. The GI50 ([14]; read-out: pGI50 (converted)) was 1.58 µM, the CC50 [14, 34] was 7.94 µM and the TGI [15] was 2.79 µM. It also gave a GI50 ([15]; read-out: GI50) of 1.48 µM, a CC50 [15, 33] of 5.28 µM and a GI50 ([15]; read-out: pGI50 (converted)) of 1.48 µM. For the same molecule, the CC50 [15, 34] was 5.25 µM, the Activity [16] was -100% and the Activity [17] was -100%. For the same molecule, the TGI [18] was 3.4 µM, the GI50 ([18]; read-out: GI50) was 1.78 µM and the GI50 ([18]; read-out: pGI50 (converted)) was 1.78 µM. It also gave a TGI [19] of 10.2 µM, a GI50 ([19]; read-out: GI50) of 2.92 µM and a CC50 [19, 33] of 100 µM. The GI50 ([19]; read-out: pGI50 (converted)) was 2.95 µM, the CC50 [19, 34] was greater than 100 µM and the TGI [20] was 3.7 µM. It also gave a GI50 ([20]; read-out: GI50) of 1.77 µM, a GI50 ([20]; read-out: pGI50 (converted)) of 1.78 µM and a TGI [21] of 2.94 µM. The GI50 ([21]; read-out: GI50) was 1.59 µM, the CC50 [21, 33] was 5.42 µM and the GI50 ([21]; read-out: pGI50 (converted)) was 1.58 µM. For the same molecule, the CC50 [21, 34] was 5.37 µM, the Activity [22] was -61.83% and the TGI [23] was 2.8 µM. The GI50 ([23]; read-out: GI50) was 1.48 µM, the CC50 [23, 33] was 5.29 µM and the GI50 ([23]; read-out: pGI50 (converted)) was 1.48 µM. It also gave a CC50 [23, 34] of 5.25 µM, a TGI [24] of 2.94 µM and a GI50 ([24]; read-out: GI50) of 1.15 µM. It also gave a GI50 ([24]; read-out: pGI50 (converted)) of 1.15 µM, a TGI [25] of 3.3 µM and a GI50 ([25]; read-out: GI50) of 1.63 µM. The GI50 ([25]; read-out: pGI50 (converted)) was 1.62 µM, the TGI [26] was 2.48 µM and the GI50 ([26]; read-out: GI50) was 1.22 µM. For the same molecule, the CC50 [26, 33] was 5.03 µM, the GI50 ([26]; read-out: pGI50 (converted)) was 1.23 µM and the CC50 [26, 34] was 5.01 µM. For the same molecule, the TGI [27] was 3.5 µM, the GI50 ([27]; read-out: GI50) was 1.56 µM and the CC50 [27, 33] was 7.86 µM. For the same molecule, the GI50 ([27]; read-out: pGI50 (converted)) was 1.55 µM, the CC50 [27, 34] was 7.94 µM and the TGI [28] was 2.48 µM. It also gave a GI50 ([28]; read-out: GI50) of 1.24 µM, a CC50 [28, 33] of 4.98 µM and a GI50 ([28]; read-out: pGI50 (converted)) of 1.23 µM. For the same molecule, the CC50 [28, 34] was 5.01 µM, the TGI [29] was 2.47 µM and the GI50 ([29]; read-out: GI50) was 1.2 µM. The GI50 ([29]; read-out: pGI50 (converted)) was 1.2 µM, the TGI [30] was 2.43 µM and the GI50 ([30]; read-out: GI50) was 0.615 µM. For the same molecule, the CC50 [30, 33] was 7.96 µM, the GI50 ([30]; read-out: pGI50 (converted)) was 0.617 µM and the CC50 [30, 34] was 7.94 µM. The Activity [31] was -100% and the Activity [32] was -96.46%.
